According to US11439148B2, “Pyrimidine derivatives” (SYNGENTA PARTICIPATIONS AG, priority 2017, dated 2022):

Each compound was assayed on Setaria viridis (SETVI) (assay: Adjuvant efficacy with fomesafen, glasshouse spray test). Conditions: fomesafen sodium salt SL, mean over 100 and 200 g/ha and 3 replicates; adjuvant 0.2% v/v (none in No Adjuvant rows); % leaf area killed, 21 days after application; Tests 1-4 separate runs.
Format: in vivo
Experimental: (§1) The efficacy of adjuvants 1-12 as adjuvants for the herbicide fomesafen (as the sodium salt) were tested in a glasshouse against four weed species, sown into standard soil in pots and cultivated under controlled conditions in a glasshouse (at 24/18° C. day/night; 16 hours light, 65% humidity). Fomesafen sodium salt was added to the spray tank as a standard SL (soluble concentrate) formulation.
(§2) The spray tests were also carried out using fomesafen in conjunction with adjuvants 1-12. Unless otherwise stated, the adjuvants were added to the spray solution at a rate of 0.2% v/v. All spray solutions also contained 12.5% v/v of iso-Propanol to normalise the retention of the sprays on the hydrophobic plant surfaces. The weed species and their BBCH growth stage at spraying were Abutilon theophrasti (ABUTH; growth stage 12-13), Chenopodium album (CHEAL; growth stage 15), Ipomea hederacea (IPOHE; growth stage 12), and Setaria viridis (SETVI; growth stage 14). Each spray test was replicated three times. The test plants were then grown in a glasshouse under controlled conditions (at 24/18° C. day/night; 16 hours light; 65% humidity) and watered twice a day.
(§3) The efficacy of the herbicide was assessed visually and expressed as a percentage of the leaf area killed. Samples were assessed at a time period of 21 days following application. The results shown in Table 2 below are mean averages over the two rates of fomesafen, the three replicates […].
For `CCCCCCOc1cc(OCCOCCOC)ncn1` [Adjuvant 1], the “Mean % Herbicidal Activity SETVI” value was 65%. In the case of `CCCCCCOc1cc(OCCOCCOCCOCCOCCOCCOCCOCCOCCOCCOC)ncn1` [Adjuvant 2], the “Mean % Herbicidal Activity SETVI” value is reported as 53%.

What follows are compounds tested on Ipomea hederacea (IPOHE) in the same assay as above. Conditions: fomesafen sodium salt SL, mean over 100 and 200 g/ha and 3 replicates; adjuvant 0.2% v/v (none in No Adjuvant rows); % leaf area killed, 21 days after application; Tests 1-4 separate runs.
Format: in vivo
Experimental: as §1, §2, §3
With `CCCCCCOc1cc(OCCOCCOC)ncn1` [Adjuvant 1] the “Mean % Herbicidal Activity IPOHE” value was 91%. With `CCCCCCOc1cc(OCCOCCOCCOCCOCCOCCOCCOCCOCCOCCOC)ncn1` [Adjuvant 2] the “Mean % Herbicidal Activity IPOHE” value was 95%.

Each compound was assayed on Abutilon theophrasti (ABUTH) in the same assay as above. Conditions: fomesafen sodium salt SL, mean over 100 and 200 g/ha and 3 replicates; adjuvant 0.2% v/v (none in No Adjuvant rows); % leaf area killed, 21 days after application; Tests 1-4 separate runs.
Format: in vivo
Experimental: as §1, §2, §3
With `CCCCCCOc1cc(OCCOCCOC)ncn1` [Adjuvant 1] the “Mean % Herbicidal Activity ABUTH” value was 74%. For `CCCCCCOc1cc(OCCOCCOCCOCCOCCOCCOCCOCCOCCOCCOC)ncn1` [Adjuvant 2], the “Mean % Herbicidal Activity ABUTH” value was 57%.

These compounds were tested on Chenopodium album (CHEAL) in the same assay as above. Conditions: fomesafen sodium salt SL, mean over 100 and 200 g/ha and 3 replicates; adjuvant 0.2% v/v (none in No Adjuvant rows); % leaf area killed, 21 days after application; Tests 1-4 separate runs.
Format: in vivo
Experimental: as §1, §2, §3
In the case of `CCCCCCOc1cc(OCCOCCOC)ncn1` [Adjuvant 1], the “Mean % Herbicidal Activity CHEAL” value is reported as 79%. In the case of `CCCCCCOc1cc(OCCOCCOCCOCCOCCOCCOCCOCCOCCOCCOC)ncn1` [Adjuvant 2], the “Mean % Herbicidal Activity CHEAL” value is reported as 68%.

What follows are compounds tested on Alopecurus myosuroides (ALOMY) (assay: Adjuvant efficacy with pinoxaden, glasshouse spray test). Conditions: pinoxaden EC, mean over 7.5 and 15 g/ha and 3 replicates; adjuvant 0.2% v/v (none in No Adjuvant rows); % leaf area killed, 21 days after application; Tests 1-4 separate runs.
Format: in vivo
Experimental: as §1, with “pinoxaden” for “fomesafen (as the sodium salt)”, “20/16°” for “24/18°”, “light;” for “light,”, “Pinoxaden” for “Fomesafen sodium salt”, “EC (emulsifiable” for “SL (soluble”
(§4) The spray tests were also carried out using pinoxaden in conjunction with adjuvants 1-12. The adjuvants were added to the spray solution at a rate of 0.2% v/v unless otherwise stated. All spray solutions also contained 10% w/w of iso-Propanol. The weed species and their BBCH growth stage at spraying were Avena fatua (AVEFA; growth stage 12), Lolium perenne (LOLPE; growth stage 13), Alopecurus myosuroides (ALOMY; growth stage 13), and Setaria viridis (SETVI; growth stage 13-14). Each spray test was replicated three times. The test plants were then grown in a glasshouse under controlled conditions (at 20/16° C. day/night; 16 hours light; 65% humidity) and watered twice a day. The efficacy of the herbicide was assessed visually and expressed as a percentage of the leaf area killed. Samples were assessed at a time period of 21 days following application. The results shown in Table 4 below are mean averages over the two rates of pinoxaden, and the three replicates.
`CCCCCCOc1cc(OCCOCCOC)ncn1` [Adjuvant 1] was tested, and the “Mean % Herbicidal Activity ALOMY” value was 20%. In the case of `CCCCCCOc1cc(OCCOCCOCCOCCOCCOCCOCCOCCOCCOCCOC)ncn1` [Adjuvant 2], the “Mean % Herbicidal Activity ALOMY” value is reported as 16%.

The compounds below were run on Avena fatua (AVEFA) in the same assay as above. Conditions: pinoxaden EC, mean over 7.5 and 15 g/ha and 3 replicates; adjuvant 0.2% v/v (none in No Adjuvant rows); % leaf area killed, 21 days after application; Tests 1-4 separate runs.
Format: in vivo
Experimental: as §1, with “pinoxaden” for “fomesafen (as the sodium salt)”, “20/16°” for “24/18°”, “light;” for “light,”, “Pinoxaden” for “Fomesafen sodium salt”, “EC (emulsifiable” for “SL (soluble”
as §4
For `CCCCCCOc1cc(OCCOCCOC)ncn1` [Adjuvant 1], the “Mean % Herbicidal Activity AVEFA” value was 78%. With `CCCCCCOc1cc(OCCOCCOCCOCCOCCOCCOCCOCCOCCOCCOC)ncn1` [Adjuvant 2] the “Mean % Herbicidal Activity AVEFA” value was 56%.

The compounds below were run on Setaria viridis (SETVI) in the same assay as above. Conditions: pinoxaden EC, mean over 7.5 and 15 g/ha and 3 replicates; adjuvant 0.2% v/v (none in No Adjuvant rows); % leaf area killed, 21 days after application; Tests 1-4 separate runs.
Format: in vivo
Experimental: as §1, with “pinoxaden” for “fomesafen (as the sodium salt)”, “20/16°” for “24/18°”, “light;” for “light,”, “Pinoxaden” for “Fomesafen sodium salt”, “EC (emulsifiable” for “SL (soluble”
as §4
With `CCCCCCOc1cc(OCCOCCOC)ncn1` [Adjuvant 1] the “Mean % Herbicidal Activity SETVI” value was 82%. For `CCCCCCOc1cc(OCCOCCOCCOCCOCCOCCOCCOCCOCCOCCOC)ncn1` [Adjuvant 2], the “Mean % Herbicidal Activity SETVI” value was 87%.

Each compound was assayed on Lolium perenne (LOLPE) in the same assay as above. Conditions: pinoxaden EC, mean over 7.5 and 15 g/ha and 3 replicates; adjuvant 0.2% v/v (none in No Adjuvant rows); % leaf area killed, 21 days after application; Tests 1-4 separate runs.
Format: in vivo
Experimental: as §1, with “pinoxaden” for “fomesafen (as the sodium salt)”, “20/16°” for “24/18°”, “light;” for “light,”, “Pinoxaden” for “Fomesafen sodium salt”, “EC (emulsifiable” for “SL (soluble”
as §4
For `CCCCCCOc1cc(OCCOCCOC)ncn1` [Adjuvant 1], the “Mean % Herbicidal Activity LOLPE” value was 41%. For `CCCCCCOc1cc(OCCOCCOCCOCCOCCOCCOCCOCCOCCOCCOC)ncn1` [Adjuvant 2], the “Mean % Herbicidal Activity LOLPE” value was 28%.

Each compound was assayed on Setaria viridis (SETVI) (assay: Adjuvant efficacy with nicosulfuron, glasshouse spray test). Conditions: nicosulfuron WG, mean over 15 and 60 g/ha and 3 replicates; adjuvant 0.2% v/v (none in No Adjuvant rows); % leaf area killed, 21 days after application; Tests 1-4 separate runs.
Format: in vivo
Experimental: (§5) The efficacy of adjuvants 1-12 as adjuvants for the herbicide nicosulfuron were tested in a glasshouse against four weed species sown into standard soil in pots and cultivated under controlled conditions in a glasshouse (at 24/18° C. day/night; 16 hours light; 65% humidity). Nicosulfuron was added to the spray tank as a standard WG (water dispersible granule) formulation.
(§6) The spray tests were also carried out using nicosulfuron in conjunction with adjuvants 1-12. The adjuvant was added to the spray solution at a rate of 0.2% v/v. All spray solutions also contained 12.5% v/v of iso-Propanol. The weed species and their BBCH growth stage at spraying were Abutilon theophrasti (ABUTH; growth stage 13), Chenopodium album (CHEAL; growth stage 13-14), Digitaria sanguinalis (DIGSA; growth stage 11), and Setaria viridis (SETVI; growth stage 13). Each spray test was replicated three times. The test plants were then grown in a glasshouse under controlled conditions (at 24/18° C. day/night; 16 hours light; 65% humidity) and watered twice a day. The efficacy of the herbicide was assessed visually and expressed as a percentage of the leaf area killed. Samples were assessed at a time period of 21 days following application. The results shown in Table 1 below are mean averages over the two rates of nicosulfuron, and the three replicates.
In the case of `CCCCCCOc1cc(OCCOCCOC)ncn1` [Adjuvant 1], the “Mean % Herbicidal Activity SETVI” value is reported as 93%. With `CCCCCCOc1cc(OCCOCCOCCOCCOCCOCCOCCOCCOCCOCCOC)ncn1` [Adjuvant 2] the “Mean % Herbicidal Activity SETVI” value was 97%.

These compounds were tested on Digitaria sanguinalis (DIGSA) in the same assay as above. Conditions: nicosulfuron WG, mean over 15 and 60 g/ha and 3 replicates; adjuvant 0.2% v/v (none in No Adjuvant rows); % leaf area killed, 21 days after application; Tests 1-4 separate runs.
Format: in vivo
Experimental: as §5, §6
With `CCCCCCOc1cc(OCCOCCOC)ncn1` [Adjuvant 1] the “Mean % Herbicidal Activity DIGSA” value was 88%. With `CCCCCCOc1cc(OCCOCCOCCOCCOCCOCCOCCOCCOCCOCCOC)ncn1` [Adjuvant 2] the “Mean % Herbicidal Activity DIGSA” value was 89%.

What follows are compounds tested on Abutilon theophrasti (ABUTH) in the same assay as above. Conditions: nicosulfuron WG, mean over 15 and 60 g/ha and 3 replicates; adjuvant 0.2% v/v (none in No Adjuvant rows); % leaf area killed, 21 days after application; Tests 1-4 separate runs.
Format: in vivo
Experimental: as §5, §6
In the case of `CCCCCCOc1cc(OCCOCCOC)ncn1` [Adjuvant 1], the “Mean % Herbicidal Activity ABUTH” value is reported as 64%. `CCCCCCOc1cc(OCCOCCOCCOCCOCCOCCOCCOCCOCCOCCOC)ncn1` [Adjuvant 2] was tested, and the “Mean % Herbicidal Activity ABUTH” value was 61%.

Each compound was assayed on Chenopodium album (CHEAL) in the same assay as above. Conditions: nicosulfuron WG, mean over 15 and 60 g/ha and 3 replicates; adjuvant 0.2% v/v (none in No Adjuvant rows); % leaf area killed, 21 days after application; Tests 1-4 separate runs.
Format: in vivo
Experimental: as §5, §6
In the case of `CCCCCCOc1cc(OCCOCCOC)ncn1` [Adjuvant 1], the “Mean % Herbicidal Activity CHEAL” value is reported as 84%. In the case of `CCCCCCOc1cc(OCCOCCOCCOCCOCCOCCOCCOCCOCCOCCOC)ncn1` [Adjuvant 2], the “Mean % Herbicidal Activity CHEAL” value is reported as 80%.

Each compound was assayed on four weed species (ABUTH, CHEAL, IPOHE, SETVI) (assay: Adjuvant efficacy with fomesafen, glasshouse spray test, average over all species). Conditions: fomesafen sodium salt SL, mean over 100 and 200 g/ha, adjuvant 0.2% v/v (none in No Adjuvant rows), 21 days, average of ABUTH.
Format: in vivo
Experimental: as §1, §2, §3
`CCCCCCOc1cc(OCCOCCOC)ncn1` [Adjuvant 1] was tested, and the “Mean % Herbicidal Activity Average over all Species” value (“Mean % Herbicidal Activity Average” below) was 77%. In the case of `CCCCCCOc1cc(OCCOCCOCCOCCOCCOCCOCCOCCOCCOCCOC)ncn1` [Adjuvant 2], the “Mean % Herbicidal Activity Average” value is reported as 68%.

These compounds were tested on four weed species (ABUTH, CHEAL, DIGSA, SETVI) (assay: Adjuvant efficacy with nicosulfuron, glasshouse spray test, average over all species). Conditions: nicosulfuron WG, mean over 15 and 60 g/ha, adjuvant 0.2% v/v (none in No Adjuvant rows), 21 days, average of ABUTH.
Format: in vivo
Experimental: as §5, §6
In the case of `CCCCCCOc1cc(OCCOCCOC)ncn1` [Adjuvant 1], the “Mean % Herbicidal Activity Average” value is reported as 83%. With `CCCCCCOc1cc(OCCOCCOCCOCCOCCOCCOCCOCCOCCOCCOC)ncn1` [Adjuvant 2] the “Mean % Herbicidal Activity Average” value was 82%.
